Laboratory results from ChEMBL document CHEMBL5154702, “Synthesis and biological evaluation of aminobenzamides containing purine moiety as class I histone deacetylases inhibitors” (Bioorg Med Chem, 2022).

molecular target: Histone deacetylase; type: cell-based, Homo sapiens; conditions: hela

Row | Structure (SMILES) | IC50
1 | CCCNc1nc(Cl)nc2c1ncn2Cc1ccc(C(=O)Nc2ccc(Br)cc2N)cc1 | 9.26 µM
2 | CNc1nc(Cl)nc2c1ncn2Cc1ccc(C(=O)Nc2ccc(C)cc2N)cc1 | 1.98 µM
3 | CCCCNc1nc(Cl)nc2c1ncn2Cc1ccc(C(=O)Nc2ccc(C)cc2N)cc1 | 1.01 µM
4 | CCNc1nc(Cl)nc2c1ncn2Cc1ccc(C(=O)Nc2ccc(Br)cc2N)cc1 | 10.33 µM
5 | Cc1ccc(NC(=O)c2ccc(Cn3cnc4c(Cl)nc(Cl)nc43)cc2)c(N)c1 | 25.04 µM
6 | Cc1ccc(Nc2nc(Cl)nc3c2ncn3CCCCCCCC(=O)NO)cc1 | 0.0153 µM
7 | CCCNc1nc(Cl)nc2c1ncn2Cc1ccc(C(=O)Nc2ccc(C)cc2N)cc1 | 3.13 µM
8 | CCNc1nc(Cl)nc2c1ncn2Cc1ccc(C(=O)Nc2ccc(C)cc2N)cc1 | 5.57 µM
9 | CCCCCNc1nc(Cl)nc2c1ncn2Cc1ccc(C(=O)Nc2ccc(Br)cc2N)cc1 | 18.68 µM
10 | CCCCCNc1nc(Cl)nc2c1ncn2Cc1ccc(C(=O)Nc2ccc(C)cc2N)cc1 | 2.03 µM
11 | CNc1nc(Cl)nc2c1ncn2Cc1ccc(C(=O)Nc2ccc(Br)cc2N)cc1 | 2.16 µM

Other lines, results leading:

Row | IC50 | Structure (SMILES)
12 | 2.86 µM | CCCCCNc1nc(Cl)nc2c1ncn2Cc1ccc(C(=O)Nc2ccc(F)cc2N)cc1
13 | 2.64 µM | Nc1cc(F)ccc1NC(=O)c1ccc(Cn2cnc3c(Cl)nc(Cl)nc32)cc1
14 | 4.33 µM | CCN(CC)c1nc(Cl)nc2c1ncn2Cc1ccc(C(=O)Nc2ccc(C)cc2N)cc1
15 | 4.24 µM | CCN(CC)c1nc(Cl)nc2c1ncn2Cc1ccc(C(=O)Nc2ccc(F)cc2N)cc1
16 | 4.41 µM | CCCNc1nc(Cl)nc2c1ncn2Cc1ccc(C(=O)Nc2ccc(F)cc2N)cc1
17 | 3.11 µM | CCN(CC)c1nc(Cl)nc2c1ncn2Cc1ccc(C(=O)Nc2ccc(Br)cc2N)cc1
